Experimental data published in US10294236B2, “Compounds as rearranged during transfection (RET) inhibitors” (GLAXOSMITHKLINE INTELLECTUAL PROPERTY DEVELOPMENT LIMITED, priority 2014, dated 2019).
pIC50: −log10 of the molar value.

Target: T1, Human RET kinase cytoplasmic domain (Homo sapiens, UniProt P07949)
T1 construct: made in house
T1 sequence (P07949 658-1114): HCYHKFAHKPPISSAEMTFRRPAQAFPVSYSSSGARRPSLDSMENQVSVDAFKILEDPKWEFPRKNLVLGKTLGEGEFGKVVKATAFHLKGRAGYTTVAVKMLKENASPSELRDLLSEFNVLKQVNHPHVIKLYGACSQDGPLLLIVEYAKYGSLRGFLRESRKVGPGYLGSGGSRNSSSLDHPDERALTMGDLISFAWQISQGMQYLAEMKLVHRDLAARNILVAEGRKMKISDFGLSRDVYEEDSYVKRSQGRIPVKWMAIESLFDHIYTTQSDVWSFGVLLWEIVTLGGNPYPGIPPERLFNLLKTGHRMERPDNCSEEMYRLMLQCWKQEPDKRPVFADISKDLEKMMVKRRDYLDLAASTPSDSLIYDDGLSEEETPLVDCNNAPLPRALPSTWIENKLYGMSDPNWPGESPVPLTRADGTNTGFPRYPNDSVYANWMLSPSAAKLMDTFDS
Experiment: RET kinase enzymatic assay
Assay type: biochemical
Protocol: GST-RET was purified using glutathione sepharose chromatography. The RET kinase enzymatic assay was performed in a total volume of 10 uL with increasing concentrations of RET kinase inhibitor as a singlet in a 384 well format as follows: RET inhibitor compound plates are prepared by adding 100 nL of RET inhibitor at different concentrations to a 384-well plate. 5 μL/well of a 2× enzyme mix (50 mM HEPES (4-(2-hydroxyethyl)-1-piperazineethanesulfonic acid); 1 mM CHAPS (3-[(3-cholamidopropyl)dimethylammonio]-1-propanesulfonate); 0.1 mg/mL BSA (bovine serum albumin); 1 mM DTT (dithiothreitol); 0.2 nM RET kinase) was added to the 384-well plate and incubated for 30 minutes at 23° C. 5 µL/well of a 2× substrate mix (50 mM HEPES; 1 mM CHAPS; 0.1 mg/mL BSA; 20 μM adenosine triphosphate; 20 mM MgCl2 and 1 μM biotinylated peptide substrate) was added and incubated for 1 hour at 23° C. […] IC50s were fitted using GraphPad Prism to a sigmoidal dose response.

Structure (SMILES)	pIC50
CCOc1cc(-c2ccc(NC(=O)Nc3ccc(OC4(C)COC4)c(C(F)(F)F)c3)nc2)c[nH]c1=O [Example 27, 1-(5′-Ethoxy-6′-oxo-1′,6′-dihydro-[3,3′-bipyridin]-6-yl)-3-(4-((3-methyloxetan-3-yl)oxy)-3-(trifluoromethyl)phenyl)urea]	> 7.00
CCOc1cc(=O)[nH]cc1-c1ncc(NC(=O)Nc2cnc(C(C)(C)O)c(C(F)(F)F)c2)c(C)n1 [Example 28, 1-(2-(4-Ethoxy-6-oxo-1,6-dihydropyridin-3-yl)-4-methylpyrimidin-5-yl)-3-(6-(2-hydroxypropan-2-yl)-5-(trifluoromethyl)pyridin-3-yl)urea]	> 7.00
CCOc1cc(-c2ncc(NC(=O)Nc3cnc(C(C)(C)O)c(C(F)(F)F)c3)c(C)n2)c[nH]c1=O [Example 29, 1-(2-(5-Ethoxy-6-oxo-1,6-dihydropyridin-3-yl)-4-methylpyrimidin-5-yl)-3-(6-(2-hydroxypropan-2-yl)-5-(trifluoromethyl)pyridin-3-yl)urea]	> 7.00
CCOc1cc(-c2ccc(NC(=O)Nc3ccc(CN4CCN(CC)CC4)c(C(F)(F)F)c3)c(C(F)F)c2)c[nH]c1=O [Example 30, 1-(2-(Difluoromethyl)-4-(5-ethoxy-6-oxo-1,6-dihydropyridin-3-yl)phenyl)-3-(4-((4-ethylpiperazin-1-yl)methyl)-3-(trifluoromethyl)phenyl)urea]	> 7.00
CCOc1cc(Oc2ccc(NC(=O)Nc3ccc(CN4CCN(CC)CC4)c(C(F)(F)F)c3)cc2)c[nH]c1=O [Example 31, 1-(4-((5-Ethoxy-6-oxo-1,6-dihydropyridin-3-yl)oxy)phenyl)-3-(4-((4-ethylpiperazin-1-yl)methyl)-3-(trifluoromethyl)phenyl)urea]	> 7.00
CCOc1cc(-c2ncc(NC(=O)Nc3cc(C(F)(F)F)c(CN4CCN(CC)CC4)cc3F)c(C)n2)c[nH]c1=O [Example 32, 1-(2-(5-Ethoxy-6-oxo-1,6-dihydropyridin-3-yl)-4-methylpyrimidin-5-yl)-3-(4-((4-ethylpiperazin-1-yl)methyl)-2-fluoro-5-(trifluoromethyl)phenyl)urea]	> 7.00
CCOc1cc(-c2nc(C)c(NC(=O)Nc3ccc(CN4CCN(CC)CC4)c(C(F)(F)F)c3)c(C)n2)c[nH]c1=O [Example 33, 1-(2-(5-Ethoxy-6-oxo-1,6-dihydropyridin-3-yl)-4,6-dimethylpyrimidin-5-yl)-3-(4-((4-ethylpiperazin-1-yl)methyl)-3-(trifluoromethyl)phenyl)urea]	> 7.00
CCOc1nc(=O)[nH]cc1-c1ccc(NC(=O)Nc2ccc(OC3(C)COC3)c(C(F)(F)F)c2)c(F)c1 [Example 34, 1-(4-(4-Ethoxy-2-oxo-1,2-dihydropyrimidin-5-yl)-2-fluorophenyl)-3-(4-((3-methyloxetan-3-yl)oxy)-3-(trifluoromethyl)phenyl)urea]	> 7.00
CCOc1[nH]c(=O)ccc1-c1ccc(NC(=O)Nc2ccc(OC3(C)COC3)c(C(F)(F)F)c2)c(F)c1 [Example 35, 1-(4-(2-Ethoxy-6-oxo-1,6-dihydropyridin-3-yl)-2-fluorophenyl)-3-(4-((3-methyloxetan-3-yl)oxy)-3-(trifluoromethyl)phenyl)urea]	> 7.00
CC1(Oc2ccc(NC(=O)Nc3ccc(-c4c[nH]c(=O)c(F)c4)cc3F)cc2C(F)(F)F)COC1 [Example 36, 1-(2-Fluoro-4-(5-fluoro-6-oxo-1,6-dihydropyridin-3-yl)phenyl)-3-(4-((3-methyloxetan-3-yl)oxy)-3-(trifluoromethyl)phenyl)urea]	> 7.00
CC1(Oc2ccc(NC(=O)Nc3ccc(-c4c[nH]c(=O)cc4F)cc3F)cc2C(F)(F)F)COC1 [Example 37, 1-(2-Fluoro-4-(4-fluoro-6-oxo-1,6-dihydropyridin-3-yl)phenyl)-3-(4-((3-methyloxetan-3-yl)oxy)-3-(trifluoromethyl)phenyl)urea]	> 7.00
CCOc1cc(=O)[nH]cc1-c1ncc(NC(=O)Nc2cccc(C(F)(F)F)c2)c(C)n1 [Example 38, 1-(2-(4-Ethoxy-6-oxo-1,6-dihydropyridin-3-yl)-4-methylpyrimidin-5-yl)-3-(3-(trifluoromethyl)phenyl)urea]	> 7.00
Cc1nc(-c2c[nH]c(=O)c3occc23)ncc1NC(=O)Nc1cnc(C(C)(C)O)c(C(F)(F)F)c1 [Example 39, 1-(6-(2-Hydroxypropan-2-yl)-5-(trifluoromethyl)pyridin-3-yl)-3-(4-methyl-2-(7-oxo-6,7-dihydrofuro[2,3-c]pyridin-4-yl)pyrimidin-5-yl)urea]	> 7.00
Cc1[nH]c(=O)ccc1-c1ccc(NC(=O)Nc2ccc(OC3(C)COC3)c(C(F)(F)F)c2)c(F)c1 [Example 40, 1-(2-Fluoro-4-(2-methyl-6-oxo-1,6-dihydropyridin-3-yl)phenyl)-3-(4-((3-methyloxetan-3-yl)oxy)-3-(trifluoromethyl)phenyl)urea]	> 7.00
CCOc1cc(-c2cnc(NC(=O)Nc3ccc(CC(C)(C)CO)c(C(F)(F)F)c3)c(C)n2)c[nH]c1=O [Example 41, 1-(5-(5-Ethoxy-6-oxo-1,6-dihydropyridin-3-yl)-3-methylpyrazin-2-yl)-3-(4-(3-hydroxy-2,2-dimethylpropyl)-3-(trifluoromethyl)phenyl)urea]	> 7.00
CCOc1cc(-c2ncc(NC(=O)Nc3cccc(C(F)(F)F)c3)c(C)n2)c[nH]c1=O [Example 42, 1-(2-(5-Ethoxy-6-oxo-1,6-dihydropyridin-3-yl)-4-methylpyrimidin-5-yl)-3-(3-(trifluoromethyl)phenyl)urea]	> 7.00
CCOc1cc(-c2ncc(NC(=O)Nc3ccc(C#N)c(C(F)(F)F)c3)c(C)n2)c[nH]c1=O [Example 43, 1-(4-Cyano-3-(trifluoromethyl)phenyl)-3-(2-(5-ethoxy-6-oxo-1,6-dihydropyridin-3-yl)-4-methylpyrimidin-5-yl)urea]	> 7.00
CCOc1cc(=O)[nH]cc1-c1ncc(NC(=O)Nc2ccc(C#N)c(C(F)(F)F)c2)c(C)n1 [Example 44, 1-(4-Cyano-3-(trifluoromethyl)phenyl)-3-(2-(4-ethoxy-6-oxo-1,6-dihydropyridin-3-yl)-4-methylpyrimidin-5-yl)urea]	> 7.00
CCOc1cc(-c2ccc(NC(=O)Nc3ccc(CN4CCOCC4)c(C(F)(F)F)c3)c(F)c2)c[nH]c1=O [Example 45, 1-(4-(5-Ethoxy-6-oxo-1,6-dihydropyridin-3-yl)-2-fluorophenyl)-3-(4-(morpholinomethyl)-3-(trifluoromethyl)phenyl)urea]	> 7.00
CCOc1cc(=O)[nH]cc1-c1ncc(NC(=O)Nc2cc(C(C)(C)C(F)(F)F)on2)c(C)n1 [Example 46, 1-(2-(4-Ethoxy-6-oxo-1,6-dihydropyridin-3-yl)-4-methylpyrimidin-5-yl)-3-(5-(1,1,1-trifluoro-2-methylpropan-2-yl)isoxazol-3-yl)urea]	> 7.00
CCOc1cc(=O)[nH]cc1-c1ncc(NC(=O)Nc2ccc(CC(C)(C)CO)c(C(F)(F)F)c2)c(C)n1 [Example 47, 1-(2-(4-Ethoxy-6-oxo-1,6-dihydropyridin-3-yl)-4-methylpyrimidin-5-yl)-3-(4-(3-hydroxy-2,2-dimethylpropyl)-3-(trifluoromethyl)phenyl)urea]	> 7.00
CCOc1cc(-c2ncc(NC(=O)Nc3ccc(CC(C)(C)CO)c(C(F)(F)F)c3)c(C)n2)c[nH]c1=O [Example 48, 1-(2-(5-Ethoxy-6-oxo-1,6-dihydropyridin-3-yl)-4-methylpyrimidin-5-yl)-3-(4-(3-hydroxy-2,2-dimethylpropyl)-3-(trifluoromethyl)phenyl)urea]	> 7.00
